Where two headings read alike, the source gives them in different places.
Experiments:
Assay type in all cases: biochemical
human PPARδ-LBD = target: T1, human PPARδ-LBD (Homo sapiens, UniProt Q03181); assay: TR-FRET coactivator recruitment assay, PPARδ-LBD
T1 construct: PPARδ-LBD (AAs 170–441); made in house
T1 sequence (Q03181 170-441): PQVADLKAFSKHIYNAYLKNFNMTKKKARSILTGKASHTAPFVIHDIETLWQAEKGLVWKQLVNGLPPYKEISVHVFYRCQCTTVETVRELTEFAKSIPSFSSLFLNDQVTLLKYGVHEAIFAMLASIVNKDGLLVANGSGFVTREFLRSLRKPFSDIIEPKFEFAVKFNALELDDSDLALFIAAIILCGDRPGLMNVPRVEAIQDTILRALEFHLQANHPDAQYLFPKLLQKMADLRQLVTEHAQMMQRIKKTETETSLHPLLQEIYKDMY

human PPARγ-LBD = target: T2, human PPARγ-LBD (Homo sapiens, UniProt P37231); assay: TR-FRET coactivator recruitment assay, PPARγ-LBD
T2 construct: PPARγ-LBD (AAs 203–477 in isoform 1); made in house
T2 sequence (P37231 203-477 isoform P37231-2): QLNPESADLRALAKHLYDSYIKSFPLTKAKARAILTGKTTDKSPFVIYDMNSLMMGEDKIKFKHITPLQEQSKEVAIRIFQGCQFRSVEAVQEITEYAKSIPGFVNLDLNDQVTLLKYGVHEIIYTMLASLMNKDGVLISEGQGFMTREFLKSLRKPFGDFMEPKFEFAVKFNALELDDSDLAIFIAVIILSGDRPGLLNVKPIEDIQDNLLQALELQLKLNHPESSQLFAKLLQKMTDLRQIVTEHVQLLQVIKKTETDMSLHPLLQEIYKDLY

human PPARα-LBD = target: T3, human PPARα-LBD (Homo sapiens, UniProt Q07869); assay: TR-FRET coactivator recruitment assay, PPARα-LBD; set-up: extent of recruitment of all four coactivators to PPARα-LBD: reference not given here; conditions: for EC50: Buffer A; for Approximate potency order in the recruitment of four coactivators, PPARα: evaluated based on EC50 values, PGC, PGC1α, SRC, SRC1, TRAP, TRAP220
T3 construct: Human PPARα-LBD [amino acids (AAs) 200–468]; made in house
T3 sequence (Q07869 200-468): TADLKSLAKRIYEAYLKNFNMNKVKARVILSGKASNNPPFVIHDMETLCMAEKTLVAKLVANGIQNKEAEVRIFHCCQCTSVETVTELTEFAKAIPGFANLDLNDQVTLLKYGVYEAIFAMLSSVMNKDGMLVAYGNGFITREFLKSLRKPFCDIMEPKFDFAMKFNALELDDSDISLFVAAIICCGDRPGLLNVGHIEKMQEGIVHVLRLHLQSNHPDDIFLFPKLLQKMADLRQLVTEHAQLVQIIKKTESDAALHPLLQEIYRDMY

[1] = CBP peptide recruitment, Buffer A, read-out: PPARδ CBP EC50
[2] = PGC1α peptide recruitment, Buffer A, read-out: PPARδ PGC1α EC50
[3] = SRC1 peptide recruitment, Buffer A, read-out: PPARδ SRC1 EC50
[4] = TRAP220 peptide recruitment, Buffer A, read-out: PPARδ TRAP220 EC50
[5] = evaluated based on EC50 values, PGC, PGC1α, SRC, SRC1, TRAP, TRAP220
[6] = read-out: PPARδ CBP % of GW501516 max response
[7] = read-out: PPARδ PGC1α % of GW501516 max response
[8] = read-out: PPARδ TRAP220 % of GW501516 max response
[9] = CBP peptide recruitment, Buffer A, read-out: PPARγ CBP EC50
[10] = PGC1α peptide recruitment, Buffer A, read-out: PPARγ PGC1α EC50
[11] = SRC1 peptide recruitment, Buffer A, read-out: PPARγ SRC1 EC50
[12] = TRAP220 peptide recruitment, Buffer A, read-out: PPARγ TRAP220 EC50
[13] = read-out: PPARγ CBP % of GW1929 max response
[14] = read-out: PPARγ PGC1α % of GW1929 max response
[15] = read-out: PPARγ SRC1 % of GW1929 max response
[16] = read-out: PPARγ TRAP220 % of GW1929 max response
[17] = CBP peptide recruitment, read-out: PPARα CBP EC50
[18] = PGC1α peptide recruitment, read-out: PPARα PGC1α EC50
[19] = SRC1 peptide recruitment, read-out: PPARα SRC1 EC50
[20] = TRAP220 peptide recruitment, read-out: PPARα TRAP220 EC50
[21] = read-out: PPARα CBP % of GW7647 max response
[22] = read-out: PPARα PGC1α % of GW7647 max response
[23] = read-out: PPARα SRC1 % of GW7647 max response
[24] = read-out: PPARα TRAP220 % of GW7647 max response
[25] = read-out: PPARδ SRC1 % of GW501516 max response

Row | Structure (SMILES) | EC50 (human PPARδ-LBD; [1]) [µM] | EC50 (human PPARδ-LBD; [2]) [µM] | EC50 (human PPARδ-LBD; [3]) [µM] | EC50 (human PPARδ-LBD; [4]) [µM] | Approximate potency order in the recruitment of four coactivators, PPARδ (human PPARδ-LBD; [5]) | Emax (human PPARδ-LBD; [6]) [%] | Emax (human PPARδ-LBD; [7]) [%] | Emax (human PPARδ-LBD; [8]) [%] | EC50 (human PPARγ-LBD; [9]) [µM] | EC50 (human PPARγ-LBD; [10]) [µM] | EC50 (human PPARγ-LBD; [11]) [µM] | Emax (human PPARγ-LBD; [13]) [%] | Emax (human PPARγ-LBD; [14]) [%] | Emax (human PPARγ-LBD; [15]) [%] | Emax (human PPARγ-LBD; [16]) [%] | Approximate potency order in the recruitment of four coactivators, PPARα (human PPARα-LBD) | Emax (human PPARα-LBD; [21]) [%] | Emax (human PPARα-LBD; [22]) [%] | Emax (human PPARα-LBD; [23]) [%] | Emax (human PPARα-LBD; [24]) [%] | also measured
1 | CCO[C@@H](Cc1ccc(OCCn2c(C)ccc2-c2ccc(SC)cc2)cc1)C(=O)O [Saroglitazar, saroglitazar] | > 100 | 3.91 | > 100 | > 100 | Faint activation | 6.72 | 8.94 | 2.5 | 1.87 | 2.46 | 5.55 | 85 | 50.1 | 40 | 52.4 | CBP>TRAP>PGC=SRC | 80.2 | 58.3 | 54.2 | 64.2 | EC50 (human PPARγ-LBD; [12]): 8.43 µM; Approximate potency order in the recruitment of four coactivators, PPARγ (human PPARγ-LBD; [5]): CBP>PGC>TRAP=SRC; EC50 (human PPARα-LBD; [17]): 0.28 µM; EC50 (human PPARα-LBD; [18]): 0.761 µM; EC50 (human PPARα-LBD; [19]): 0.814 µM; EC50 (human PPARα-LBD; [20]): 0.674 µM
2 | CC(C)(Oc1ccc(CCNC(=O)c2ccc(Cl)cc2)cc1)C(=O)O [Bezafibrate, bezafibrate] | – | – | – | – | – | 64.6 | 90.3 | 85.8 | – | – | – | 68.7 | 68.6 | 34 | 55.7 | CBP>PGC=TRAP>SRC | 79.2 | 74.5 | 72.4 | 76.4 | Approximate potency order in the recruitment of four coactivators, PPARδ (human PPARδ-LBD): TRAP>PGC>CBP>SRC; recruitment of coactivators to PPARδ-LBD (in words) (human PPARδ-LBD): recruited all four coactivators; EC50 (human PPARδ-LBD; PPARδ CBP EC50): 58.5 µM; EC50 (human PPARδ-LBD; PPARδ TRAP220 EC50): 24.5 µM; EC50 (human PPARδ-LBD; read-out: PPARδ PGC1α EC50): 35.8 µM; Emax (human PPARδ-LBD; [25]): 50%; EC50 (human PPARδ-LBD; read-out: PPARδ SRC1 EC50): 101 µM; Approximate potency order in the recruitment of four coactivators, PPARγ (human PPARγ-LBD): PGC=CBP=TRAP>SRC; recruitment of coactivators to PPARγ-LBD (in words) (human PPARγ-LBD): recruited all four coactivators; EC50 (human PPARγ-LBD; PPARγ CBP EC50): 36.3 µM; EC50 (human PPARγ-LBD; PPARγ PGC1α EC50): 41.8 µM; EC50 (human PPARγ-LBD; PPARγ SRC1 EC50): 108 µM; EC50 (human PPARγ-LBD; PPARγ TRAP220 EC50): 24.5 µM; extent of recruitment of all four coactivators to PPARα-LBD (human PPARα-LBD): 72.4–79.2%; recruitment of coactivators to PPARα-LBD (in words) (human PPARα-LBD; four coactivator peptides): recruited all four coactivators
3 | O=C(O)CCCc1cc2cc(Cl)ccc2n1S(=O)(=O)c1ccc2ncsc2c1 [Lanifibranor, lanifibranor] | 3.72 | 2.46 | 6.97 | 4.41 | PGC>CBP>TRAP>SRC | 101 | 103 | 86.5 | 2.64 | 4.31 | 7.69 | 83.3 | 70.5 | 46.1 | 60.4 | CBP>TRAP>PGC=SRC | 71.7 | 41.8 | 49.3 | 64.7 | recruitment of coactivators to PPARδ-LBD (in words) (human PPARδ-LBD; four coactivator peptides): effective; Emax (human PPARδ-LBD; [25]): 57.5%; EC50 (human PPARγ-LBD; [12]): 5.07 µM; Approximate potency order in the recruitment of four coactivators, PPARγ (human PPARγ-LBD; [5]): CBP>PGC>TRAP>SRC; EC50 (human PPARα-LBD; [17]): 4.02 µM; EC50 (human PPARα-LBD; [18]): 9.95 µM; EC50 (human PPARα-LBD; [19]): 10.4 µM; EC50 (human PPARα-LBD; [20]): 7.31 µM
4 | CCO[C@H](COc1ccc(C(F)(F)F)cc1)CSc1ccc(OCC(=O)O)c(C)c1 [Seladelpar, seladelpar] | 0.0468 | 0.0317 | 0.0748 | 0.0607 | PGC>CBP>SRC=TRAP | 120 | 113 | 136 | 10.7 | 4.98 | 22.4 | 45.9 | 49.8 | 11.9 | 20.5 | CBP>PGC>SRC=TRAP | 49.2 | 34.3 | 15.5 | 11 | recruitment of coactivators to PPARδ-LBD (in words) (human PPARδ-LBD; four coactivator peptides): effective; EC50 (human PPARδ-LBD; range over PGC1α, CBP, SRC1, TRAP220, Buffer A, read-out: EC50 values on the four coactivators, PPARδ): 0.0317 to 0.0748 µM; extent of recruitment of four coactivators to PPARδ-LBD (human PPARδ-LBD; range over four coactivators, 100% = 0.1 µM GW501516): 113–146%; Emax (human PPARδ-LBD; [25]): 146%; EC50 (human PPARγ-LBD; [12]): 13.6 µM; Approximate potency order in the recruitment of four coactivators, PPARγ (human PPARγ-LBD; [5]): PGC=CBP>TRAP>SRC; EC50 (human PPARα-LBD; [17]): 1.19 µM; EC50 (human PPARα-LBD; [18]): 2.05 µM; EC50 (human PPARα-LBD; [19]): 1.92 µM; EC50 (human PPARα-LBD; [20]): 1.84 µM
